Data: patent US8188094B2, “Inhibitors of glutaminyl cyclase” (Probiodrug AG, priority 2007, dated 2012)

Biological target: glutaminyl cyclase (QC) (Homo sapiens, UniProt Q16769)
Experiment: QC inhibitor assay (fluorometric / spectrophotometric QC activity assays)
Type: biochemical
Conditions: QC inhibition, 30° C.; for Ki: progress curves fitted to the general equation for competitive inhibition
Method: All measurements were performed with a BioAssay Reader HTS-7000Plus for microplates (Perkin Elmer) at 30° C. QC activity was evaluated fluorometrically using H-Gln-βNA. The samples consisted of 0.2 mM fluorogenic substrate, 0.25 U pyroglutamyl aminopeptidase (Unizyme, Hørsholm, Denmark) in 0.2 M Tris/HCl, pH 8.0 containing 20 mM EDTA and an appropriately diluted aliquot of QC in a final volume of 250 μl. Excitation/emission wavelengths were 320/410 nm. The assay reactions were initiated by addition of glutaminyl cyclase. QC activity was determined from a standard curve of β-naphthylamine under assay conditions. One unit is defined as the amount of QC catalyzing the formation of 1 μmol pGlu-βNA from H-Gln-βNA per minute under the described conditions.
In a second fluorometric assay, QC was activity determined using H-Gln-AMC as substrate. Reactions were carried out at 30° C. utilizing the NOVOStar reader for microplates (BMG labtechnologies). The samples consisted of varying concentrations of the fluorogenic substrate, 0.1 U pyroglutamyl aminopeptidase (Qiagen) in 0.05 M Tris/HCl, pH 8.0 containing 5 mM EDTA and an appropriately diluted aliquot of QC in a final volume of 250 μl. Excitation/emission wavelengths were 380/460 nm. The assay reactions were initiated by addition of glutaminyl cyclase. QC activity was determined from a standard curve of 7-amino-4-methylcoumarin under assay conditions. The kinetic data were evaluated using GraFit software.
This novel assay was used to determine the kinetic parameters for most of the QC substrates. QC activity was analyzed spectrophotometrically using a continuous method, that was derived by adapting a previous discontinuous assay (Bateman, R. C. J. 1989 J Neurosci Methods 30, 23-28) utilizing glutamate dehydrogenase as auxiliary enzyme. Samples consisted of the respective QC substrate, 0.3 mM NADH, 14 mM α-Ketoglutaric acid and 30 U/ml glutamate dehydrogenase in a final volume of 250 μl. Reactions were started by addition of QC and persued by monitoring of the decrease in absorbance at 340 nm for 8-15 min.
The initial velocities were evaluated and the enzymatic activity was determined from a standard curve of ammonia under assay conditions. All samples were measured at 30° C., using either the SPECTRAFluor Plus or the Sunrise (both from TECAN) reader for microplates. Kinetic data was evaluated using GraFit software.
For inhibitor testing, the sample composition was the same as described above, except of the putative inhibitory compound added. For a rapid test of QC-inhibition, samples contained 4 mM of the respective inhibitor and a substrate concentration at 1 KM. For detailed investigations of the inhibition and determination of Ki-values, influence of the inhibitor on the auxiliary enzymes was investigated first. In every case, there was no influence on either enzyme detected, thus enabling the reliable determination of the QC inhibition. The inhibitory constant was evaluated by fitting the set of progress curves to the general equation for competitive inhibition using GraFit software.

Chain of glutaminyl cyclase (QC) (Q16769 29-361): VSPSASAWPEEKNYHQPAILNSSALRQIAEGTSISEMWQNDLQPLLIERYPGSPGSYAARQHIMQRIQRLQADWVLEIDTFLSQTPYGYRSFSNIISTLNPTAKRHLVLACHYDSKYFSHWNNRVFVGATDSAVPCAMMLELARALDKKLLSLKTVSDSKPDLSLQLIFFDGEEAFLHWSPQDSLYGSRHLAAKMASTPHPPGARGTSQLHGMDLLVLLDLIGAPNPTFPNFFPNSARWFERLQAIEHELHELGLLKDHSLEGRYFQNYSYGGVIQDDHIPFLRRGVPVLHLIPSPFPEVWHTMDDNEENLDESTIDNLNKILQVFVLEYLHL

Structure (SMILES) | IC50 [µM] | Ki [µM]
c1ccc(-c2nc(Nc3ccc4nc[nH]c4c3)cc(-c3ccc4ncccc4c3)n2)cc1 [Example 30, N-(2-phenyl-6-(quinolin-6-yl)pyrimidin-4-yl)-3H-benzo[d]imidazol-5-amine] | 100 | 
c1ccc(-c2nc(NCCCn3ccnc3)cc(-c3ccoc3)n2)cc1 [Example 13, N-(3-(1H-imidazol-1-yl)propyl)-6-(furan-3-yl)-2-phenylpyrimidin-4-amine] | 40.3 | 14.9
COc1ccccc1-c1cc(NCCCn2ccnc2)nc(-c2ccncc2)n1 [Example 26, N-(3-(1H-imidazol-1-yl)propyl)-6-(2-methoxyphenyl)-2-(pyridin-4-yl)pyrimidin-4-amine] | 8.18 | 0.83
COc1cc(-c2cc(NCCCn3ccnc3)nc(-c3ccccc3)n2)cc(OC)c1OC [Example 8, N-(3-(1H-imidazol-1-yl)propyl)-6-(3,4,5-trimethoxyphenyl)-2-phenylpyrimidin-4-amine] | 7.08 | 1.16
FC(F)(F)c1cc(-c2cc(NCCCn3ccnc3)nc(-c3ccccc3)n2)cc(C(F)(F)F)c1 [Example 7, N-(3-(1H-imidazol-1-yl)propyl)-6-(3,5-bis(trifluoromethyl)phenyl)-2-phenyl-pyrimidin-4-amine] | 91.1 | 
Cc1ccc(-c2cc(NCCCn3ccnc3)nc(C)n2)cc1 [Example 5, N-(3-(1H-imidazol-1-yl)propyl)-2-methyl-6-p-tolylpyrimidin-4-amine] | 13.3 | 3.52
c1ccc(C2CC2c2cc(NCCCn3ccnc3)nc(-c3ccncc3)n2)cc1 (stereo not drawn) [Example 33, N-(3-(1H-imidazol-1-yl)propyl)-6-(2-phenylcyclopropyl)-2-(pyridin-4-yl)-pyrimidin-4-amine] | 26.5 | 3.06
COc1ccccc1-c1cc(NCCCn2cncc2C)nc(-c2ccncc2)n1 [Example 28, 6-(2-Methoxyphenyl)-N-(3-(5-methyl-1H-imidazol-1-yl)propyl)-2-(pyridin-4-yl)pyrimidin-4-amine] | 1.09 | 0.281
COc1cccc(-c2cc(NCCCn3ccnc3)nc(-c3ccccc3)n2)c1 [Example 12, N-(3-(1H-imidazol-1-yl)propyl)-6-(3-methoxyphenyl)-2-phenylpyrimidin-4-amine] | 9.37 | 3.75
Cc1cc(NCCCn2ccnc2)nc(C)n1 [Example 4, N-(3-(1H-imidazol-1-yl)propyl)-2,6-dimethylpyrimidin-4-amine] | 30.3 | 9.31
Cc1ccc(-c2cc(NCCCn3ccnc3)nc(-c3ccncc3)n2)cc1 [Example 25, N-(3-(1H-imidazol-1-yl)propyl)-2-(pyridin-4-yl)-6-p-tolylpyrimidin-4-amine] | 30.6 | 
c1cc(-c2nc(NCCCn3ccnc3)cc(-c3ccoc3)n2)ccn1 [Example 17, N-(3-(1H-imidazol-1-yl)propyl)-6-(furan-3-yl)-2-(pyridin-4-yl)pyrimidin-4-amine] | 27.3 | 3.7
Cc1nc(NCCCn2ccnc2)cc(-c2ccccc2)n1 [Example 3, N-(3-(1H-imidazol-1-yl)propyl)-2-methyl-6-phenylpyrimidin-4-amine] | 28.1 | 4.6
COc1cccc(-c2cc(NCCCn3ccnc3)nc(C)n2)c1 [Example 19, N-(3-(1H-imidazol-1-yl)propyl)-6-(3-methoxyphenyl)-2-methylpyrimidin-4-amine] | 20.9 | 2.7
Cc1cc(NCCCn2ccnc2)nc(-c2ccccc2)n1 [Example 1, N-(3-(1H-imidazol-1-yl)propyl)-6-methyl-2-phenylpyrimidin-4-amine] | 47.8 | 18
Cc1nc(NCCCn2ccnc2)cc(-c2cc(C(F)(F)F)cc(C(F)(F)F)c2)n1 [Example 6, N-(3-(1H-imidazol-1-yl)propyl)-6-(3,5-bis(trifluoromethyl)phenyl)-2-methyl-pyrimidin-4-amine] | 14.7 | 4.69
c1ccc2c(c1)CC(c1cc(NCCCn3ccnc3)nc(-c3ccncc3)n1)C2 [Example 36, N-(3-(1H-imidazol-1-yl)propyl)-6-(2,3-dihydro-1H-inden-2-yl)-2-(pyridin-4-yl)-pyrimidin-4-amine] | 26.8 | 3.52
COc1ccccc1-c1cc(NCCCn2ccnc2)nc(-c2ccccc2)n1 [Example 11, N-(3-(1H-imidazol-1-yl)propyl)-6-(2-methoxyphenyl)-2-phenylpyrimidin-4-amine] | 22.6 | 
c1ccc(-c2cc(NCCCn3ccnc3)nc(-c3ccccc3)n2)cc1 [Example 2, N-(3-(1H-imidazol-1-yl)propyl)-2,6-diphenylpyrimidin-4-amin] | 49.8 | 3.9
COc1ccc(-c2cc(NCCCn3ccnc3)nc(C)n2)cc1 [Example 21, N-(3-(1H-imidazol-1-yl)propyl)-6-(4-methoxyphenyl)-2-methylpyrimidin-4-amine] | 18.5 | 2.26
Cc1nc(NCCCn2ccnc2)cc(C2Cc3ccccc3C2)n1 [Example 34, N-(3-(1H-imidazol-1-yl)propyl)-6-(2,3-dihydro-1H-inden-2-yl)-2-methyl-pyrimidin-4-amine] | 48.3 | 6.82
Cc1nc(NCCCn2ccnc2)cc(-c2ccc3ncccc3c2)n1 [Example 31, N-(3-(1H-imidazol-1-yl)propyl)-2-methyl-6-(quinolin-6-yl)pyrimidin-4-amine] | 31.4 | 3.56
c1ccc(-c2nc(NCCCn3ccnc3)cc(C34CC5CC(CC(C5)C3)C4)n2)cc1 [Example 14, N-(3-(1H-imidazol-1-yl)propyl)-6-(adamant-1-yl)-2-phenylpyrimidin-4-amine] | 116 | 
COc1ccccc1-c1cc(NCCCn2ccnc2)nc(C)n1 [Example 22, N-(3-(1H-imidazol-1-yl)propyl)-6-(2-methoxyphenyl)-2-methylpyrimidin-4-amine] | 19.3 | 2.16
O=[N+]([O-])c1ccc(-c2cc(NCCCn3ccnc3)nc(-c3ccccc3)n2)cc1 [Example 10, N-(3-(1H-imidazol-1-yl)propyl)-6-(4-nitrophenyl)-2-phenylpyrimidin-4-amine] | 12.4 | 
O=[N+]([O-])c1ccc(-c2cc(NCCCn3ccnc3)nc(-c3ccncc3)n2)cc1 [Example 24, N-(3-(1H-imidazol-1-yl)propyl)-6-(4-nitrophenyl)-2-(pyridin-4-yl)pyrimidin-4-amine] | 16.9 | 
FC(F)(F)c1cc(NCCCn2ccnc2)nc(-c2ccncc2)n1 [Example 18, N-(3-(1H-imidazol-1-yl)propyl)-6-(trifluoromethyl)-2-(pyridin-4-yl)pyrimidin-4-amine] | 36.8 | 4.19
COc1cc(-c2cc(NCCCn3ccnc3)nc(C)n2)cc(OC)c1OC [Example 20, N-(3-(1H-imidazol-1-yl)propyl)-6-(3,4,5-trimethoxy-phenyl)-2-methyl-pyrimidin-4-amine] | 6.43 | 0.72
COc1cccc(-c2cc(NCCCn3ccnc3)nc(-c3ccncc3)n2)c1 [Example 27, N-(3-(1H-imidazol-1-yl)propyl)-6-(3-methoxyphenyl)-2-(pyridin-4-yl)pyrimidin-4-amine] | 19 | 
Cc1ccc(-c2cc(NCCCn3ccnc3)nc(-c3ccccc3)n2)cc1 [Example 9, N-(3-(1H-imidazol-1-yl)propyl)-2-phenyl-6-p-tolylpyrimidin-4-amine] | 14.4 | 
